One data set has as its system Enterobacter cloacae. As to the kind of experiment: Potentiation of novobiocin-induced antibacterial activity against colistin-resistant Enterobacter cloacae 118568 clinical solate assessed as novobiocin MIC at <= 7.1 uM incubated for 18 hrs by CLSI protocol based assay (reference value: 1024 ug/ml). Format: functional. The settings on record: Enterobacter cloacae, 118568, 18 h.

In data set [1] the test system is Pseudomonas aeruginosa. The data set is described as follows: Potentiation of novobiocin-induced antibacterial activity against colistin and carbapenem-resistant Pseudomonas aeruginosa 101243 clinical isolate assessed as novobiocin MIC at <= 7.1 uM incubated for 18 hrs by CLSI protocol based assay (reference value: 128 ug/ml). Format: functional. The settings on record: Pseudomonas aeruginosa, 101243, 18 h.

The subject of data set [2] is Klebsiella pneumoniae. The data set is described as follows: Potentiation of novobiocin-induced antibacterial activity against colistin-resistant Klebsiella pneumoniae 113254 clinical isolate assessed as novobiocin MIC at <= 7.1 uM incubated for 18 hrs by CLSI protocol based assay (reference value: 256 ug/ml). Format: functional. The settings on record: Klebsiella pneumoniae, 113254, 18 h.

Data set [3] is described as follows: Toxicity in Galleria mellonella larvae MDR Acinetobacter baumannii isolate assessed as larvae protection at 25 mg/kg in combination with novobiocin measured after 24 to 96 hrs relative to control. The class given is ADME, organism-based. The conditions noted are these: in vivo.
Data set [4] concerns Pseudomonas aeruginosa. As to the kind of experiment: Potentiation of novobiocin-induced antibacterial activity against wild type Pseudomonas aeruginosa PAO1 assessed as novobiocin MIC at <= 7.1 uM incubated for 18 hrs by CLSI protocol based assay (reference value: 512 ug/ml). The conditions noted are these: PAO1, 18 h. The class given is functional.
The test system of data set [5] is Acinetobacter baumannii. As to the kind of experiment: Potentiation of novobiocin-induced antibacterial activity against colistin-resistant Acinetobacter baumannii 92247 clinical isolate assessed as novobiocin MIC at <= 7.1 uM incubated for 18 hrs by CLSI protocol based assay (reference value: 4 ug/ml). The class given is functional. The conditions noted are these: Acinetobacter baumannii, 92247, 18 h.

Data set [6] has as its system Acinetobacter baumannii. As to the kind of experiment: Potentiation of novobiocin-induced antibacterial activity against novobiocin and colistin resistant Acinetobacter baumannii ATCC 17978 mutant generated from seven serial passages by checkerboard assay. Format: functional, organism-based.
In data set [7] the test system is Pseudomonas aeruginosa. As to the kind of experiment: Induction of outer membrane permeabilization in Pseudomonas aeruginosa PAO1 assessed as increase in accumulation of NPN by measuring fluorescence intensity at 8 ug/ml measured immediately by NPN dye uptake assay. Format: organism-based.
The test system of data set [8] is Pseudomonas aeruginosa. As to the kind of experiment: Potentiation of novobiocin-induced antibacterial activity against carbapenem and colistin-resistant Pseudomonas aeruginosa 114228 clinical isolate assessed as novobiocin MIC at <= 7.1 uM incubated for 18 hrs by CLSI protocol based assay (reference value: 512 ug/ml). Format: functional. The settings on record: Pseudomonas aeruginosa, 114228, 18 h.

For data set [9], the system named is Escherichia coli. As to the kind of experiment: Potentiation of novobiocin-induced antibacterial activity against colistin-resistant Escherichia coli 94474 clinical isolate harboring mcr-1 gene assessed as novobiocin MIC at <= 7.1 uM incubated for 18 hrs by CLSI protocol based assay (reference value: 256 ug/ml). The conditions noted are these: Escherichia coli, 94474, 18 h. The class given is functional.

The test system of data set [10] is Pseudomonas aeruginosa. The data set is described as follows: Potentiation of novobiocin-induced antibacterial activity against carbapenem and colistin-resistant Pseudomonas aeruginosa 91433 clinical isolate assessed as novobiocin MIC at <= 7.1 uM incubated for 18 hrs by CLSI protocol based assay (reference value: 16 ug/ml). The class given is functional. The conditions noted are these: Pseudomonas aeruginosa, 91433, 18 h.

Data set [11] concerns Escherichia coli. The data set is described as follows: Potentiation of novobiocin-induced antibacterial activity against colistin-resistant Escherichia coli 94393 clinical isolate harboring mcr-1 gene assessed as novobiocin MIC at <= 7.1 uM incubated for 18 hrs by CLSI protocol based assay (reference value: 128 ug/ml). The conditions noted are these: Escherichia coli, 94393, 18 h. Format: functional.

In data set [12] the test system is Acinetobacter baumannii. The data set is described as follows: Antibacterial activity against novobiocin and test compound-resistant Acinetobacter baumannii ATCC 17978 mutant generated from seven serial passages in presence of novobiocin by checkerboard assay. Format: functional.
The subject of data set [13] is Acinetobacter baumannii. As to the kind of experiment: Antibacterial activity against wild type Acinetobacter baumannii ATCC 17978 assessed as resistant development at sub-MIC measured after 7 days of passaging by microbroth dilution method relative to control. The class given is functional. In general terms: In broth dilution the organism is exposed to a series of concentrations in liquid medium.

Data set [14] has as its system Pseudomonas aeruginosa. The data set is described as follows: Induction of outer membrane permeabilization in Pseudomonas aeruginosa PAO1 assessed as increase in accumulation of NPN by measuring fluorescence intensity at 14 ug/ml measured immediately by NPN dye uptake assay. Format: organism-based.
Data set [15] has as its system Acinetobacter baumannii. The data set is described as follows: Antibacterial activity against wild type Acinetobacter baumannii ATCC 17978 by checkerboard assay. Format: functional.
The subject of data set [16] is Acinetobacter baumannii. As to the kind of experiment: Antibacterial activity against colistin-resistant Acinetobacter baumannii ATCC 17978 mutant generated from seven serial passages by checkerboard assay. Format: functional.
The test system of data set [17] is Acinetobacter baumannii. As to the kind of experiment: Antibacterial activity against novobiocin-resistant Acinetobacter baumannii ATCC 17978 mutant generated from seven serial passages by checkerboard assay. Format: functional.
The test system of data set [18] is Acinetobacter baumannii. The data set is described as follows: Antibacterial activity against wild type Acinetobacter baumannii ATCC 17978 assessed as resistant development at sub-MIC measured after 3 days of passaging by microbroth dilution method relative to control. Format: functional.
The subject of data set [19] is Acinetobacter baumannii. As to the kind of experiment: Bacteriostatic activity against Acinetobacter baumannii ATCC 17978 at 50.4 uM in LB media after 24 hrs by time-kill assay. Format: functional, organism-based.
The nature of data set [20]: Toxicity in Galleria mellonella larvae MDR Acinetobacter baumannii isolate assessed as mortality at 100 mg/kg measured after 24 hrs relative to control. The class given is ADME, organism-based. The conditions noted are these: in vivo, read-out: Activity.
For data set [21], the system named is Klebsiella pneumoniae. The data set is described as follows: Bacteriostatic activity against Klebsiella pneumoniae 116381 at 50.4 uM in LB media after 24 hrs by time-kill assay. Format: functional.
Data set [22] deals with Staphylococcus epidermidis. The data set is described as follows: Antibacterial activity against methicillin-resistant Staphylococcus epidermidis 61589. Format: functional.
A further data set deals with Enterococcus faecium. The data set is described as follows: Antibacterial activity against Enterococcus faecium ATCC 27270. Format: functional.
The test system of data set [23] is Acinetobacter baumannii. As to the kind of experiment: Antibacterial activity against wild type Acinetobacter baumannii ATCC 17978 assessed as resistant development at sub-MIC measured after 5 days of passaging by microbroth dilution method relative to control. Format: functional.
The test system of data set [24] is Escherichia coli. The data set is described as follows: Bactericidal activity against Escherichia coli ATCC […] at 50.4 uM in LB media after 24 hrs by time-kill assay. The class given is functional, organism-based.
The subject of data set [25] is Pseudomonas aeruginosa. As to the kind of experiment: Bacteriostatic activity against Pseudomonas aeruginosa PAO1 at 50.4 uM in LB media after 24 hrs by time-kill assay. Format: functional, organism-based.
For the next data set, the system named is Staphylococcus aureus. The data set is described as follows: Antibacterial activity against methicillin-resistant Staphylococcus aureus ATCC 33592. Format: functional.

In brackets after ≈: the same amount, converted by molar mass. Activity calls are given as the source filed them. No cut-off for these calls is given here. Positions of bridges follow the written chain, without caps; N, C: chain ends. Non-standard residues stand in square brackets, D forms with d. Residues, ends and D or L forms follow the SMILES beside them. Dab = NCC[C@H](N)C(=O)O Where only a bound is given, the exact number is not on record here.

What is called MIC is the least concentration at which growth counts as inhibited. On to `CC(C)C[C@@H]1NC(=O)[C@@H](Cc2ccccc2)NC(=O)[C@H](CCN)NC(=O)[C@@H](NC(=O)[C@H](CCN)NC(=O)[C@@H](N)[C@@H](C)O)CCNC(=O)[C@H]([C@@H](C)O)NC(=O)[C@H](CCN)NC(=O)[C@H](CCN)NC1=O` [POLYMYXIN B NONAPEPTIDE] (H-T[Dab][Dab][Dab][dF]L[Dab][Dab]T; lactam 3-C), for which the minimum inhibitory concentration (MIC) with Enterobacter cloacae came to 512 µg/mL; with Pseudomonas aeruginosa [1], 8 µg/mL; with Klebsiella pneumoniae [2], 64 µg/mL; in the data set on Pseudomonas aeruginosa [4], 4 µg/mL; in the data set with Acinetobacter baumannii [5], 1 µg/mL; in the data set with Pseudomonas aeruginosa [8] it was 128 µg/mL. In addition, the minimal inhibitory concentration (MIC) is 32 µg/mL in the data set with Escherichia coli [9], 4 µg/mL with Pseudomonas aeruginosa [10] and 4 µg/mL with Escherichia coli [11]. Further, the Activity in data set [3] is 35%. In addition, in the data set on Acinetobacter baumannii [6], the result was inactive. Also, in the data set with Pseudomonas aeruginosa [7], the result was Active.

Regarding `NC[C@H]1O[C@H](O[C@H]2[C@H](O)[C@@H](O[C@H]3O[C@H](CO)[C@@H](O)[C@H](N)[C@H]3O)[C@H](N)C[C@@H]2N)[C@H](N)C[C@@H]1O` [TOBRAMYCIN], the minimal inhibitory concentration (MIC) in the data set with Acinetobacter baumannii [12] came to 1 µg/mL; with Acinetobacter baumannii [15], 1 µg/mL; in the data set with Acinetobacter baumannii [16], 0.25 µg/mL; in the data set with Acinetobacter baumannii [17], 1 µg/mL. In addition, the “fold change (FC)” value in the data set with Acinetobacter baumannii [13] is listed as 512. Moreover, in the data set with Pseudomonas aeruginosa [14], the result was inactive.

Regarding `CO[C@@H]1[C@@H](OC(N)=O)[C@@H](O)[C@H](Oc2ccc3c(O)c(NC(=O)c4ccc(O)c(CC=C(C)C)c4)c(=O)oc3c2C)OC1(C)C` [NOVOBIOCIN], the “fold change (FC)” value in the data set with Acinetobacter baumannii [18] amounted to 64; in the data set with Acinetobacter baumannii [23], 256. The MIC is 128 µg/mL in the data set with Acinetobacter baumannii [12]; 16 µg/mL in the data set with Acinetobacter baumannii [15]; 0.0625 µg/mL (≈ 0.102 µM) in data set [22]; less than 0.031 µg/mL in the data set with Acinetobacter baumannii [16]; 2 µg/mL (≈ 3.26 µM) in the data set on Enterococcus faecium; 2050 µg/mL in the data set on Acinetobacter baumannii [17]. The same compound had a minimum inhibitory concentration (MIC) in the data set on Staphylococcus aureus of 0.125 µg/mL (≈ 0.204 µM). Besides, the result with Acinetobacter baumannii [19], in the data set on Escherichia coli [24] and with Pseudomonas aeruginosa [25] was Active. Also, the mortality at 24 h in data set [20] came out at 100%. For the same compound, the Activity in the data set with Klebsiella pneumoniae [21] is on record as -1.87 CFU/ml.

(Values after ChEMBL document CHEMBL4376820, “Homodimeric Tobramycin Adjuvant Repurposes Novobiocin as an Effective Antibacterial Agent against Gram-Negative Bacteria” (J Med Chem, 2019).)
